{"source": "paper PMC4516313", "about": "(Journal of Medicinal Chemistry, 2015)", "key": {"rhesus monkeys [1]": {"test_system": "rhesus monkeys", "details": "5 day treatment, 3.0 mg/kg i.v., two of three monkeys"}, "monkeys [2]": {"test_system": "monkeys", "details": "monkeys trained to discriminate cocaine, preliminary unpublished results"}, "rats [3]": {"test_system": "rats", "details": "unpublished results"}, "[4]": {"test_system": "64 radioligand/enzyme assays", "details": "10 μM; e.g. α1 adrenergic, α2 adrenergic, histamine H1, sodium channel site 2, CCK1, NK2"}, "rats [5]": {"test_system": "rats"}, "rats [6]": {"test_system": "rats", "details": "cited from earlier work"}, "squirrel monkeys": {"test_system": "squirrel monkeys", "details": "cited from earlier work"}, "rhesus monkeys [7]": {"test_system": "rhesus monkeys", "details": "cited from earlier work"}, "rhesus monkeys [8]": {"test_system": "rhesus monkeys", "details": "cited from earlier work", "remark": "listed apart in the source"}, "humans": {"test_system": "humans", "details": "cited from earlier work"}, "monkeys [9]": {"test_system": "monkeys", "details": "5 day treatment; cited from earlier work"}, "monkeys [10]": {"test_system": "monkeys", "details": "cited from earlier work"}, "cocaine abusers": {"test_system": "cocaine abusers", "details": "cited from earlier work"}, "D3R [11]": {"test_system": "D3R", "details": "primates, PET, oral 1.0 mg/kg; cited from earlier work"}, "[12]": {"test_system": "overweight and obese subjects", "details": "cited from earlier work"}, "abstinent smokers": {"test_system": "abstinent smokers", "details": "cited from earlier work"}, "tobacco smokers": {"test_system": "tobacco smokers", "details": "smokers after overnight abstinence; cited from earlier work"}, "rats [13]": {"test_system": "rats", "details": "cited from earlier work", "remark": "listed apart in the source"}, "rats [14]": {"test_system": "rats", "details": "cited from earlier work", "remark": "listed apart in the source"}, "D3R [15]": {"test_system": "D3R", "details": "cited from earlier work"}, "[16]": {"details": "history of long access (6 h per day, 6 days per week)"}, "[17]": {"details": "history of short access (1 h per day, 3 days per week)"}}, "note": "Where two headings read alike, the source gives them in different places.", "data": [{"molecule": "O=C(NCCC(O)CN1CCN(c2cccc(Cl)c2Cl)CC1)c1cc2ccccc2[nH]1", "note": "(racemic) [(±)-1, N-(4-(4-(2,3-dichlorophenyl)piperazin-1-yl)-3-hydroxybutyl)-1H-indole-2-carboxamide]", "values": [{"measurement": "effect on METH choice curve", "setting": "rhesus monkeys [1]", "value": "produced a leftward shift of the METH choice curve"}, {"measurement": "substitution for cocaine", "setting": "monkeys [2]", "value": "does not substitute for cocaine"}, {"measurement": "effect on 7-OH DPAT-induced yawning", "setting": "rats [3]", "value": "attenuated 7-OH DPAT-induced yawning in rats"}, {"measurement": "hits in the receptor panel", "setting": "[4]", "value": "only “hit” a few"}, {"measurement": "Dunnett's test p vs vehicle, PR break points normalized to baseline", "setting": "rats [5]; 3.0 mg/kg i.p.", "value": "> 0.05"}, {"measurement": "Dunnett's test p vs vehicle, number of METH injections", "setting": "rats [5]; 3.0 mg/kg i.p.", "value": "> 0.05"}, {"measurement": "Dunnett's test p vs vehicle, PR break points normalized to baseline", "setting": "rats [5]; 10 mg/kg i.p.", "value": "< 0.001"}, {"measurement": "Dunnett's test p vs vehicle, number of METH injections", "setting": "rats [5]; 10 mg/kg i.p.", "value": "< 0.001"}, {"measurement": "effect on PR break points normalized to baseline responding", "setting": "rats [5]; i.p., 3.0 and 10 mg/kg", "value": "significantly reduced PR break points"}, {"measurement": "effect on number of METH injections (PR)", "setting": "rats [5]; i.p., 3.0 and 10 mg/kg", "value": "significantly and dose-dependently reduced METH injections"}, {"measurement": "cocaine choice, group data, posthoc comparison", "setting": "cynomolgus monkeys; 0.01 mg/kg cocaine available as the alternative to food", "value": "significant increase in cocaine choice"}, {"measurement": "effect on cocaine choice curve", "setting": "cynomolgus monkeys; seven cynomolgus monkeys, acute i.v., in all but one monkey", "value": "either shifted the cocaine choice curve to the left (4 subjects) or had no effect (2 subjects)"}]}, {"molecule": "O=C(NCC[C@H](O)CN1CCN(c2cccc(Cl)c2Cl)CC1)c1cc2ccccc2[nH]1", "note": "[(S)-1]", "values": [{"measurement": "effect on 7-OH DPAT-induced yawning", "setting": "rats [3]", "value": "attenuated 7-OH DPAT-induced yawning in rats"}, {"measurement": "Dunnett's test p vs vehicle, PR break points normalized to baseline", "setting": "rats [5]; 3.0 mg/kg i.p.", "value": "< 0.01"}, {"measurement": "Dunnett's test p vs vehicle, number of METH injections", "setting": "rats [5]; 3.0 mg/kg i.p.", "value": "> 0.05"}, {"measurement": "Dunnett's test p vs vehicle, PR break points normalized to baseline", "setting": "rats [5]; 10 mg/kg i.p.", "value": "< 0.001"}, {"measurement": "Dunnett's test p vs vehicle, number of METH injections", "setting": "rats [5]; 10 mg/kg i.p.", "value": "< 0.001"}]}, {"molecule": "O=C(NCCCCN1CCN(c2cccc(Cl)c2Cl)CC1)c1ccc(-c2ccccn2)cc1", "note": "[Compound 17, N-(4-(4-(2,3-dichlorophenyl)piperazin-1-yl)butyl)-4-(pyridin-2-yl)benzamide]", "values": [{"measurement": "PR METH self-administration", "setting": "rats [6]; [16]", "value": "reduced PR METH self-administration"}, {"measurement": "PR METH self-administration", "setting": "rats [6]; [17]", "value": "also reduced PR METH self-administration"}, {"measurement": "cocaine self-administration and cocaine-induced reinstatement", "setting": "squirrel monkeys", "value": "failed to attenuate cocaine self-administration or cocaine-induced reinstatement"}, {"measurement": "cocaine- and food-maintained responding", "setting": "rhesus monkeys [7]; monkeys, second-order schedule of reinforcement", "value": "decreased both cocaine- and food-maintained responding"}, {"measurement": "cocaine's discriminative stimulus effects", "setting": "rhesus monkeys [7]; rhesus monkeys", "value": "attenuated cocaine’s discriminative stimulus effects"}, {"measurement": "yawning", "setting": "rhesus monkeys [8]; cocaine-naïve rhesus monkeys", "value": "failed to do so"}, {"measurement": "yawning", "setting": "rhesus monkeys [8]; monkeys with a history of cocaine self-administration", "value": "induced yawning similar in magnitude to quinpirole"}]}, {"molecule": "CCCN1CCC[C@@H]2Cc3n[nH]cc3C[C@H]21", "note": "[quinpirole, reference compound]", "values": [{"measurement": "yawning", "setting": "rhesus monkeys [8]; cocaine-naïve rhesus monkeys", "value": "induces robust yawning"}]}, {"molecule": "COc1ccccc1N1CCN(CCCCNC(=O)c2ccc3ccccc3c2)CC1", "note": "[Compound 8]", "values": [{"measurement": "outcome of clinical trials for cocaine abuse", "setting": "humans", "value": "failed in clinical trials for cocaine abuse"}]}, {"molecule": "O=C1CC2(CCCC2)CC(=O)N1CCCCN1CCN(c2ncccn2)CC1", "note": "[buspirone]", "values": [{"measurement": "cocaine choice", "setting": "monkeys [9]", "value": "increased cocaine choice"}, {"measurement": "cocaine-maintained vs food-reinforced behavior", "setting": "monkeys [10]; monkeys self-administering cocaine", "value": "decreased cocaine-maintained behavior to a larger degree than food-reinforced behavior"}, {"measurement": "cocaine self-administration vs food-reinforced responding", "setting": "monkeys [10]; rhesus monkeys, continuous infusions", "value": "decreased cocaine self-administration to a greater degree than food-reinforced responding"}, {"measurement": "cocaine use", "setting": "cocaine abusers; 60 mg", "value": "increased cocaine use in women"}, {"measurement": "treatment-emergent adverse events", "setting": "cocaine abusers", "value": "did not include increases in blood pressure"}, {"measurement": "D3R occupancy", "setting": "D3R [11]", "value": "< 20", "unit": "%"}]}, {"molecule": "Cc1ncoc1-c1nnc(SCCCN2C[C@@H]3C[C@]3(c3ccc(C(F)(F)F)cc3F)C2)n1C", "note": "[Compound 7]", "values": [{"measurement": "approach bias", "setting": "[12]", "value": "reduced approach bias"}, {"measurement": "attentional bias to palatable food cues", "setting": "[12]", "value": "reduced"}, {"measurement": "attentional bias, Stroop Task", "setting": "abstinent smokers", "value": "partially attenuated an attentional bias"}, {"measurement": "craving", "setting": "tobacco smokers", "value": "transiently alleviated craving"}]}, {"molecule": "O=C(NCCCCN1CCN(c2cccc(Cl)c2Cl)CC1)c1ccc2c(c1)Cc1ccccc1-2", "note": "[Compound 2, N-(4-(4-(2,3-dichlorophenyl)piperazin-1-yl)butyl)-9H-fluorene-2-carboxamide]", "values": [{"measurement": "cue- and cocaine-induced reinstatement of cocaine seeking", "setting": "rats [13]", "value": "blocked both cue- and cocaine-induced reinstatement of cocaine seeking"}, {"measurement": "break point, cocaine PR schedule", "setting": "rats [14]", "value": "significantly lowered the break point"}]}, {"molecule": "CN(C)C(=O)N[C@H]1CC[C@H](CCN2CCN(c3cccc(Cl)c3Cl)CC2)CC1", "note": "[Compound 6, cariprazine]", "values": [{"measurement": "D3R-preferential", "setting": "D3R [15]", "value": "approximately 10 fold"}]}, {"molecule": "O=C(NC/C=C/CN1CCN(c2cccc(Cl)c2Cl)CC1)c1ccc(-c2ccccn2)cc1", "note": "[Compound 3]", "values": [{"measurement": "PR METH self-administration", "setting": "rats [6]; [16]", "value": "reduced PR METH self-administration"}, {"measurement": "PR METH self-administration", "setting": "rats [6]; [17]", "value": "in contrast to 3"}]}, {"molecule": "O=C(NCC[C@@H](O)CN1CCN(c2cccc(Cl)c2Cl)CC1)c1cc2ccccc2[nH]1", "note": "[(R)-1]", "values": [{"measurement": "Dunnett's test p vs vehicle, PR break points normalized to baseline", "setting": "rats [5]; 3.0 mg/kg i.p.", "value": "< 0.001"}, {"measurement": "Dunnett's test p vs vehicle, number of METH injections", "setting": "rats [5]; 3.0 mg/kg i.p.", "value": "< 0.01"}, {"measurement": "Dunnett's test p vs vehicle, PR break points normalized to baseline", "setting": "rats [5]; 10 mg/kg i.p.", "value": "< 0.001"}, {"measurement": "Dunnett's test p vs vehicle, number of METH injections", "setting": "rats [5]; 10 mg/kg i.p.", "value": "< 0.01"}]}]}
